According to patent EP0794185A1, “BICYCLIC THIAZOLE COMPOUND” (MEIJI SEIKA KABUSHIKI KAISHA, priority 1994, dated 1996):

How the values were obtained:
[1] = tested on: hyperlocomotion induced by methamphetamine in mice; assay: Anti-methamphetamine effect: inhibition of hyperlocomotion induced by methamphetamine in mice; assay type: in vivo, Male ddY mice; settings: Mus musculus, 0.25 h, ip, 15 min after methamphetamine 2 mg/kg sc, locomotion measured for thirty minutes
Protocol: The antipsychotic activity of the compound according to the present invention was assayed by an index the inhibitory activity on the stimulation of hyperlocomotion induced by methamphetamine in mice. Male ddY mice having a weight of 25 - 35 g were divided into groups each consisting of 3 - 6 animals. The mouse was subcutaneously administered with methamphetamine (2 mg/kg). Fifteen minutes after this administration, the compound of the present invention was intraperitoneally administered. After further fifteen minutes, the animal was then placed in a transparent acrylic box (30 cm x 30 cm x 30 cm) mounted on an apparatus to measure the locomotion for thirty minutes (MUROMACHI KIKAI, ANIMEX AUTO MK-110).

serotonin-5-HT2 receptor = target: T1, serotonin-5-HT2 receptor (Rattus norvegicus, UniProt P14842); assay: Binding to serotonin-5-HT2 receptor, [3H]ketanserin, P2 fraction of rat cerebral cortex; settings: read-out: Inhibition at 10^-9 M (%)
T1 construct: a 5-HT2 receptor of a rat cerebral cortex; from tissue; host or cells: rat cerebral cortex, P2 membrane fraction
Protocol: The affinity of the compound of the present invention for a 5-HT2 receptor of a rat cerebral cortex was assayed as follows. A P2 fraction was prepared in the same manner as described above in connection with the above (a). The P2 fraction was incubated at 37°C for 15 min in a 50 mM Tris/HCl buffer (pH 7.4) containing 1 nM [^3H]ketanserin and the compound of the present invention with various concentrations, and the amount of bound [^3H]ketanserin was then measured.

catalepsy = assay: Cataleptogenic effect (extrapyramidal effect, catalepsy provoking activity) in mice; settings: male, ddY, mouse, in vivo, ip, catalepsy observed after 20, 30 and 40 minutes
Protocol: The extrapyramidal effect of the compounds according to the present invention was assayed by an index the catalepsy provoking activity as a representative pharmacological evaluation method of the extrapyramidal effect. Male ddY mice having a body weight of 25 - 35 g which were divided into groups each consisting of 3 - 6 animals were subjected to the test. The compound of the present invention was administered intraperitoneally to observe catalepsy after 20, 30 and 40 minutes, respectively. Catalepsy was judged as positive in such cases that a mouse whose front paw was compulsorily hung up on an iron bar having a diameter of 1 mm and horizontally laid at a height of 3 cm remained in such a strained posture for more than 30 seconds. […]

dopamine-D2 receptor = target: T2, dopamine-D2 receptor (Rattus norvegicus, UniProt P61169); assay: Binding to dopamine-D2 receptor, [3H]spiperone, P2 fraction of rat cerebral corpus striatum; settings: read-out: Inhibition at 10^-7 M (%)
T2 construct: using a P2 fraction of a rat cerebral corpus striatum; from tissue; host or cells: rat cerebral corpus striatum, P2 membrane fraction
T2 sequence (P61169 whole entry): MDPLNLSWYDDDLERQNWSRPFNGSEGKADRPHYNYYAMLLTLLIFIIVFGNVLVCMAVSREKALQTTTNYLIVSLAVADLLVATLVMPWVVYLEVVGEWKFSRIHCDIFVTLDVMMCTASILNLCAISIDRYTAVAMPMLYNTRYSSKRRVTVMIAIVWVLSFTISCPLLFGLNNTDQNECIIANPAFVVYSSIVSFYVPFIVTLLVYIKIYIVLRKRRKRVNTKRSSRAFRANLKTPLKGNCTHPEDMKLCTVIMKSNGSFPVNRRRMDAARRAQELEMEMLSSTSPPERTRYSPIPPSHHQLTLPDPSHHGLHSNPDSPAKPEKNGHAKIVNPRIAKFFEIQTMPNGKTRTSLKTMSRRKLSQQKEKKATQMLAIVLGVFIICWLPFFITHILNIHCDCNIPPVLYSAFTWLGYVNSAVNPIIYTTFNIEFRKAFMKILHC
Protocol: The affinity of the compound of the present invention for D2 receptors was studied using a P2 fraction of a rat cerebral corpus striatum. The rat cerebral corpus striatum was homogenized in 0.32 M sucrose in an amount of 10 times that of the rat cerebral corpus striatum, and the homogenate was centrifuged at 900 x g for 10 min. […] An incubation buffer (50 mM Tris, 120 mM NaCl, 5 mM KCl, 1 mM MgCl2, 1 mM CaCl2, pH 7.4) was added to the sediment, and the mixture was then centrifuged at 39,000 x g for 20 min. The sediment was obtained as a P2 fraction. The P2 fraction was incubated at 37°C for 30 min in a buffer containing 0.1 nM [^3H]spiperone and the compound of the present invention with various concentrations. The reaction solution was filtered through a Whatman GF/B glass filter, and the amount of bound [^3H]spiperone was measured by a liquid scintillation counter.

T1 sequence (P14842 whole entry): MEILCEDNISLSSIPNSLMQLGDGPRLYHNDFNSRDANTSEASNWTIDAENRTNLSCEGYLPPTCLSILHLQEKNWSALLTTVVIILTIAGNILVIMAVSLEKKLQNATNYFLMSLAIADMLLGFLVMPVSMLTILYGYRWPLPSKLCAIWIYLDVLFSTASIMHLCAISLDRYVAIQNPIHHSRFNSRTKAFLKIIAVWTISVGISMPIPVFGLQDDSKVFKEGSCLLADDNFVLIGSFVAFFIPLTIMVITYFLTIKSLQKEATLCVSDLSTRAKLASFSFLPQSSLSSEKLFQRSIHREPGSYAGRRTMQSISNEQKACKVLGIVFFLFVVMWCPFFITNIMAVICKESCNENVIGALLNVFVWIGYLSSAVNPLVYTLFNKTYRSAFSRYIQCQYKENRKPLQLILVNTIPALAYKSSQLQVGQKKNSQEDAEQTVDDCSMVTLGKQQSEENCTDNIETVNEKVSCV

inhibition at 0.1 µM (dopamine-D2 receptor) [%]	SMILES	ED50 [1] [mg/kg]	inhibition at 0.001 µM (serotonin-5-HT2 receptor) [%]	ED50 (catalepsy) [mg/kg]
	Cc1cc(=O)n2c(CCN3CCC(c4noc5cc(F)ccc45)CC3)csc2n1 [Example 20, 3-[2-[4-(6-Fluoro-1,2-benzisoxazol-3-yl)-1-piperidinyl]ethyl]-5H-7-methylthiazolo[3,2-a]pyrimidin-5-one]	0.04	66.3	
	Cc1cn2c(C)c(CCN3CCC(c4noc5cc(F)ccc45)CC3)sc2n1 [Example 11, 3,6-Dimethyl-2-[2-[4-(6-fluoro-1,2-benzisoxazol-3-yl)-1-piperidinyl]ethyl]imidazo[2,1-b]thiazole]	0.12		3.3
	CN(C)CCCN1c2ccccc2Sc2ccc(Cl)cc21 [Chlorpromazine, chlorpromazine, reference compound]	1.1		6.2
95.2	Cc1cc(=O)n2c(C)c(CCN3CCC(c4csc5cc(F)ccc45)CC3)sc2n1 [Example 8, 3,7-Dimethyl-2-[2-[4-(6-fluoro-1-benzothiophen-3-yl)-1-piperidinyl]ethyl]-5H-thiazolo[3,2-a]pyrimidin-5-one]			
	Cc1cc(=O)n2c(C)c(CCN3CCC(c4noc5cc(F)ccc45)CC3)sc2n1 [Example 4, 3,7-Dimethyl-2-[2-[4-(6-fluoro-1,2-benzisoxazol-3-yl)-1-piperidinyl]ethyl]-5H-thiazolo[3,2-a]pyrimidin-5-one]	0.07		1.2
	O=C(CCCN1CCC(O)(c2ccc(Cl)cc2)CC1)c1ccc(F)cc1 [Haloperidol, haloperidol, reference compound]	0.2		1.3
